Measured values reported in US20230330060A1, “COMPOUNDS FOR TREATMENT OF HEART FAILURE” (Sulfateq B.V., priority 2020, published 2023).

Experiments:
[1] = system: doxorubicin-induced heart failure; test: Cardiac radical scavenging activity (ABTS-radical decolorization); type: in vivo, rat; conditions: doxorubicin rats; prophylactic or therapeutic administration of SUL-150
Description: The SUL-150 solution was sprayed homogeneously over standard food pellets (1.25 kg). […] Food pellets were freshly prepared weekly. With the approximation of 200 mg·kg^−1 SUL-150 in the food pellets and a daily dietary intake of 25 gram for a 350 gram rat, daily dosing of SUL-150 approximates 5 mg·day^−1. Male outbred Wistar rats of 250-300 grams (10-12 weeks old) were kept on a 12 h light/dark cycle and received a standard diet with distilled water ad libitum. Thirty rats were administered with doxorubicin (2 mg·kg^−1) weekly via intraperitoneal injection for 9 consecutive weeks and were left either untreated (standard chow diet, 10 rats), or received a diet supplemented with SUL-150 as prophylaxis (prior to the 1st doxorubicin administration, 10 rats) or therapy (starting after the 6th doxorubicin administration, 10 rats). Sham control rats (8 rats) were administered with saline weekly via intraperitoneal injection for 9 consecutive weeks and received a standard diet. All rats were subjected to cardiac function assessment 12 weeks after the first doxorubicin administration. Cardiac tissue samples were homogenized in ddH2O using a TissueRuptor II (Qiagen, Hilden, Germany) followed by sonication at 20 kHz for 3×1 min (Sonopuls 2000, Bandelin, Berlin, Germany) and centrifugation at 14000 g to pellet insoluble proteins. […]

[2] = system: doxorubicin-induced heart failure; test: Cardiac mitochondrial (mtDNA) copy number; type: in vivo, rat; conditions: doxorubicin rats; administration of SUL-150
Description: SUL-150 (250 mg) was dissolved in 100% EtOH (1.02 ml) and further diluted in distilled water (68.7 ml) to obtain a clear 10 mM solution. The SUL-150 solution was sprayed homogeneously over standard food pellets (1.25 kg). Food pellets were air-dried overnight. Food pellets were freshly prepared weekly. With the approximation of 200 mg·kg^−1 SUL-150 in the food pellets and a daily dietary intake of 25 gram for a 350 gram rat, daily dosing of SUL-150 approximates 5 mg·day^−1.
Male outbred Wistar rats of 250-300 grams (10-12 weeks old) were kept on a 12 h light/dark cycle and received a standard diet with distilled water ad libitum. Thirty rats were administered with doxorubicin (2 mg·kg^−1) weekly via intraperitoneal injection for 9 consecutive weeks and were left either untreated (standard chow diet, 10 rats), or received a diet supplemented with SUL-150 as prophylaxis (prior to the 1st doxorubicin administration, 10 rats) or therapy (starting after the 6th doxorubicin administration, 10 rats). Sham control rats (8 rats) were administered with saline weekly via intraperitoneal injection for 9 consecutive weeks and received a standard diet. […]
Cardiac tissue samples were homogenized in lysis buffer (100 mM NaCl, 10 mM EDTA, 0.5% SDS in 20 mM Tris-HCl, pH 7.4) containing 50 U·ml^−1 RNase I and 100 U·ml^−1 proteinase K (both ThermoFisher, Walthham, MA). […] MtDNA copy number was calculated as: […]

## Cc1c(C)c2c(c(C)c1O)CC[C@](C)(C(=O)N1CCNCC1)O2 [SUL-150, (R)-(6-hydroxy-2,5,7,8-tetramethylchroman-2-yl)(piperazin-1-yl)methanone]
[1]
  Cardiac radical scavenging activity, FIG. 5B: remained unaltered
[2]
  Doxorubicin-induced reduction of cardiac mtDNA copy number, FIG. 6B: precluded
